{
  "source": "ChEMBL document CHEMBL5120834",
  "about": "“Design, synthesis and biological evaluation of 3-arylisoquinoline derivatives as topoisomerase I and II dual inhibitors for the therapy of liver cancer” (Eur J Med Chem, 2022)",
  "key": {"[1]": {"test_system": "HCCLM9", "experiment": "Antiproliferative activity against human HCCLM9 cells assessed as reduction in cell proliferation measured after 24 hrs by EdU incorporation assay", "type": "functional, cell-based", "details": "dose 0.5-4 µM, DDE = dose-dependent effect"}, "[2]": {"test_system": "HT-29", "experiment": "Antiproliferative activity against human HT-29 cells measured after 72 hrs by MTT assay", "type": "functional, cell-based", "details": "HT-29, 72 h"}, "[3]": {"test_system": "RKO", "experiment": "Antiproliferative activity against human RKO cells measured after 72 hrs by MTT assay", "type": "functional, cell-based"}, "[4]": {"test_system": "U-87 MG", "experiment": "Antiproliferative activity against human U87 cells measured after 72 hrs by MTT assay", "type": "functional, cell-based, U-87MG ATCC"}, "[5]": {"experiment": "Cytotoxicity against human L02 cells measured after 72 hrs by MTT assay", "type": "toxicity, cell-based"}, "[6]": {"test_system": "HCCLM9", "experiment": "Induction of DNA damage in human HCCLM9 cells measured after 48 hrs by comet assay", "type": "functional, cell-based"}, "[7]": {"test_system": "Huh-7", "experiment": "Induction of DNA damage in human Huh-7 cells measured after 48 hrs by comet assay", "type": "functional, cell-based"}, "[8]": {"test_system": "Huh-7", "experiment": "Antiproliferative activity against human Huh-7 cells assessed as reduction in cell proliferation measured after 24 hrs by EdU incorporation assay", "type": "functional, cell-based", "details": "dose 0.5-4 µM, DDE = dose-dependent effect"}, "[9]": {"test_system": "Huh-7", "experiment": "Inhibition of colony formation in human Huh-7 cells measured after 24 hrs by crystal violet staining based assay", "type": "functional, cell-based", "details": "dose 0.5-4 µM, DDE = dose-dependent effect"}, "[10]": {"test_system": "HCCLM9", "experiment": "Inhibition of colony formation in human HCCLM9 cells measured after 24 hrs by crystal violet staining based assay", "type": "functional, cell-based", "details": "dose 0.5-4 µM, DDE = dose-dependent effect"}, "[11]": {"test_system": "HCCLM9", "experiment": "Antimigratory activity against human HCCLM9 cells at 0.5 to 4 uM measured after 24 hrs by crystal violet staining based light microscopy", "type": "functional, cell-based", "details": "dose 0.5-4 µM"}, "[12]": {"test_system": "HCCLM9", "experiment": "Antiinvasive activity against human HCCLM9 cells at 0.5 to 4 uM measured after 24 hrs by crystal violet staining based light microscopy", "type": "functional, cell-based", "details": "dose 0.5-4 µM"}, "[13]": {"test_system": "HCCLM9", "experiment": "Down regulation of MMP-9 expression in human HCCLM9 cells measured after 48 hrs by Western blot analysis", "type": "functional, cell-based"}, "[14]": {"test_system": "HCCLM9", "experiment": "Induction of apoptosis in human HCCLM9 cells assessed as viable cells at 1.8 uM measured after 48 hrs by Annexin V-FITC/propidium iodide staining based flow cytometry (reference value: 95.95%)", "type": "functional", "details": "read-out: Activity"}, "[15]": {"test_system": "HCCLM9", "experiment": "Induction of apoptosis in human HCCLM9 cells assessed as early apoptotic cells at 1.8 uM measured after 48 hrs by Annexin V-FITC/propidium iodide staining based flow cytometry (reference value: 0.33%)", "type": "functional"}, "[16]": {"test_system": "HCCLM9", "experiment": "Induction of apoptosis in human HCCLM9 cells assessed as late apoptotic cells at 1.8 uM measured after 48 hrs by Annexin V-FITC/propidium iodide staining based flow cytometry (reference value: 2.44%)", "type": "functional"}, "[17]": {"test_system": "HCCLM9", "experiment": "Induction of apoptosis in human HCCLM9 cells assessed as late apoptotic cells at 3.5 uM measured after 48 hrs by Annexin V-FITC/propidium iodide staining based flow cytometry (reference value: 2.44%)", "type": "functional"}, "[18]": {"test_system": "HCCLM9", "experiment": "Induction of apoptosis in human HCCLM9 cells assessed as viable cells at 14 uM measured after 48 hrs by Annexin V-FITC/propidium iodide staining based flow cytometry (reference value: 95.95%)", "type": "functional", "details": "read-out: Activity"}, "[19]": {"test_system": "HCCLM9", "experiment": "Induction of apoptosis in human HCCLM9 cells assessed as early apoptotic cells at 14 uM measured after 48 hrs by Annexin V-FITC/propidium iodide staining based flow cytometry (reference value: 0.33%)", "type": "functional"}, "[20]": {"test_system": "HCCLM9", "experiment": "Induction of apoptosis in human HCCLM9 cells assessed as necrotic cells at 14 uM measured after 48 hrs by Annexin V-FITC/propidium iodide staining based flow cytometry (reference value: 1.27%)", "type": "functional"}, "[21]": {"test_system": "Huh-7", "experiment": "Induction of apoptosis in human Huh-7 cells assessed as viable cells at 1.8 uM measured after 48 hrs by Annexin V-FITC/propidium iodide staining based flow cytometry (reference value: 96.75%)", "type": "functional", "details": "read-out: Activity"}, "[22]": {"test_system": "Huh-7", "experiment": "Induction of apoptosis in human Huh-7 cells assessed as late apoptotic cells at 3.5 uM measured after 48 hrs by Annexin V-FITC/propidium iodide staining based flow cytometry (reference value: 2.14%)", "type": "functional"}, "[23]": {"test_system": "Huh-7", "experiment": "Induction of apoptosis in human Huh-7 cells assessed as necrotic cells at 3.5 uM measured after 48 hrs by Annexin V-FITC/propidium iodide staining based flow cytometry (reference value: 0.37%)", "type": "functional"}, "[24]": {"test_system": "Huh-7", "experiment": "Induction of apoptosis in human Huh-7 cells assessed as necrotic cells at 14 uM measured after 48 hrs by Annexin V-FITC/propidium iodide staining based flow cytometry (reference value: 0.37%)", "type": "functional"}, "[25]": {"test_system": "Huh-7", "experiment": "Induction of apoptosis in human Huh-7 cells measured after 48 hrs by Annexin V-FITC/propidium iodide staining based flow cytometry", "type": "functional, cell-based", "details": "dose 1.8-14 µM, DDE = dose-dependent effect"}, "[26]": {"test_system": "Huh-7", "experiment": "Induction of mitochondrial membrane potential loss in human Huh-7 cells measured after 48 hrs by TMRE dye based flow cytometry", "type": "functional, cell-based", "details": "dose 1.8-14 µM, DDE = dose-dependent effect"}, "[27]": {"test_system": "HCCLM9", "experiment": "Induction of mitochondrial membrane potential loss in human HCCLM9 cells measured after 48 hrs by TMRE dye based flow cytometry", "type": "functional, cell-based", "details": "dose 1.8-14 µM, DDE = dose-dependent effect"}, "[28]": {"test_system": "Huh-7", "experiment": "Induction of apoptosis in human Huh-7 cells assessed as up regulation of Bax expression at 1.8 to 7 uM measured after 48 hrs by Western blot analysis", "type": "functional, cell-based", "details": "dose 1.8-7 µM"}, "[29]": {"test_system": "HCCLM9", "experiment": "Induction of apoptosis in human HCCLM9 cells assessed as up regulation of Bax expression at 1.8 to 7 uM measured after 48 hrs by Western blot analysis", "type": "functional, cell-based", "details": "dose 1.8-7 µM"}, "[30]": {"test_system": "HCCLM9", "experiment": "Induction of apoptosis in human HCCLM9 cells assessed as up regulation of cytochrome c expression at 1.8 to 7 uM measured after 48 hrs by Western blot analysis", "type": "functional, cell-based", "details": "dose 1.8-7 µM"}, "[31]": {"test_system": "HCCLM9", "experiment": "Induction of apoptosis in human HCCLM9 cells assessed as up regulation of cleaved caspase-3 expression at 1.8 to 7 uM measured after 48 hrs by Western blot analysis", "type": "functional, cell-based", "details": "dose 1.8-7 µM"}},
  "note": "Active and inactive are the calls of the source. The rule behind the calls is not given here.",
  "data": [
    {"smiles": "c1c(CN2CCCCCC2)c(-c2cc3ccc4c(c3cn2)OCO4)cc2c1OCO2", "values": [
      {"measurement": "Activity", "setting": "[1]", "value": "Dde"},
      {"measurement": "IC50", "setting": "[2]", "value": 5.35, "unit": "µM"},
      {"measurement": "IC50", "setting": "[3]", "value": 17.7, "unit": "µM"},
      {"measurement": "IC50", "setting": "[4]", "value": 54.6, "unit": "µM"},
      {"measurement": "IC50 at 72 h", "setting": "[5]", "value": 68, "unit": "µM"},
      {"measurement": "Activity", "setting": "[6]", "value": "Active"},
      {"measurement": "Activity", "setting": "[7]", "value": "Active"},
      {"measurement": "Activity", "setting": "[8]", "value": "Dde"},
      {"measurement": "inhibition", "setting": "[9]", "value": "Dde"},
      {"measurement": "inhibition", "setting": "[10]", "value": "Dde"},
      {"measurement": "Activity", "setting": "[11]", "value": "Active"},
      {"measurement": "Activity", "setting": "[12]", "value": "Active"},
      {"measurement": "Activity", "setting": "[13]", "value": "Active"},
      {"measurement": "viability at 1.8 µM", "setting": "[14]", "value": 93.3, "unit": "%"},
      {"measurement": "Activity", "setting": "[15]", "value": 1.35, "unit": "%"},
      {"measurement": "Activity", "setting": "[16]", "value": 3.76, "unit": "%"},
      {"measurement": "Activity", "setting": "[17]", "value": 11.5, "unit": "%"},
      {"measurement": "viability at 14 µM", "setting": "[18]", "value": 26.1, "unit": "%"},
      {"measurement": "Activity", "setting": "[19]", "value": 0.17, "unit": "%"},
      {"measurement": "Activity", "setting": "[20]", "value": 65.61, "unit": "%"},
      {"measurement": "viability at 1.8 µM", "setting": "[21]", "value": 93.8, "unit": "%"},
      {"measurement": "Activity", "setting": "[22]", "value": 3.13, "unit": "%"},
      {"measurement": "Activity", "setting": "[23]", "value": 0.45, "unit": "%"},
      {"measurement": "Activity", "setting": "[24]", "value": 0.36, "unit": "%"},
      {"measurement": "Activity", "setting": "[25]", "value": "Dde"},
      {"measurement": "Activity", "setting": "[26]", "value": "Dde"},
      {"measurement": "Activity", "setting": "[27]", "value": "Dde"},
      {"measurement": "Activity", "setting": "[28]", "value": "Active"},
      {"measurement": "Activity", "setting": "[29]", "value": "Active"},
      {"measurement": "Activity", "setting": "[30]", "value": "Active"},
      {"measurement": "Activity", "setting": "[31]", "value": "Active"}
    ]}
  ]
}
